This note sets out measurements from BindingDB's records for doi:10.1016/j.bmcl.2012.08.044 (Lundbeck Research Usa, 2012).

As usually defined, the IC50 is the concentration needed to halve the response being measured. High values mean a need for much substance, low ones inhibition by little substance.

Series [1] addresses Cytochrome P450 3A4 (Homo sapiens, UniProt P08684). Put plainly: Inhibition of CYP3A4.
In series [2] the target is Cytochrome P450 2D6 (Homo sapiens, UniProt P10635). Put plainly: Inhibition of CYP2D6.
Cytochrome P450 2D6, sequence (P10635 whole entry): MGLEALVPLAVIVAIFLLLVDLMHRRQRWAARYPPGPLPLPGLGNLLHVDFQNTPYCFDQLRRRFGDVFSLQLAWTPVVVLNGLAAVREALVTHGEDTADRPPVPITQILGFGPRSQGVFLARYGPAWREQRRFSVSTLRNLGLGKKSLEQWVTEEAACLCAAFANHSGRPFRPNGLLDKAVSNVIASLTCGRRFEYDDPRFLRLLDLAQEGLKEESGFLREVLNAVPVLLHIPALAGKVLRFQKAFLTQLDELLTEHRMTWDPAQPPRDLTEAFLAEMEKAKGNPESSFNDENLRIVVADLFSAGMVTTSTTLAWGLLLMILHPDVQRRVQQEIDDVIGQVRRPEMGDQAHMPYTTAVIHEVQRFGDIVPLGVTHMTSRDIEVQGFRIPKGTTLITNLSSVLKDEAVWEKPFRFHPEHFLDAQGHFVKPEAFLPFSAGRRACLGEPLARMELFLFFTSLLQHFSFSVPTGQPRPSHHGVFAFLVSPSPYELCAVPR

Cytochrome P450 3A4, sequence (P08684 whole entry): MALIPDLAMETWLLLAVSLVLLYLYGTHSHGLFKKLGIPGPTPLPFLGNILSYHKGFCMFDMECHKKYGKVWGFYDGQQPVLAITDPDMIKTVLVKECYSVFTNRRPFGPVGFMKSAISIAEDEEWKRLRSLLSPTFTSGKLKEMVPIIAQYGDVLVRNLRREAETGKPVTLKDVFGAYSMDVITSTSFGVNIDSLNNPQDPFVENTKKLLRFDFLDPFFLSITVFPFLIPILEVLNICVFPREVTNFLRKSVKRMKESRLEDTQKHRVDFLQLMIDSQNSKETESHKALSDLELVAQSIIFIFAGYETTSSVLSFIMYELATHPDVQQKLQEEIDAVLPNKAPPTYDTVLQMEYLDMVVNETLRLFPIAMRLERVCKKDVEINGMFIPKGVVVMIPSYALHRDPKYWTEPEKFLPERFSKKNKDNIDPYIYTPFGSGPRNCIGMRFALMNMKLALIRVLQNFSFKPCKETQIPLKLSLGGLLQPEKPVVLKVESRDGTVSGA

For `CC1CCCCC1C(=O)N1CC(c2nc(-c3cccc(F)c3)no2)C1` (centres undefined), the results for the IC50 in series [1] and in series [2] were 25 µM and 40 µM, respectively.

`O=C(C1CCC(F)(F)CC1)N1CC(c2nc(-c3cccc(Cl)c3)no2)C1`: the values for the IC50 in series [1] and in series [2] were 25 µM and 33 µM, respectively.
